In experiment [1] the target is T1, Amine oxidase [flavin-containing] A (Homo sapiens, UniProt P21397).
T1 sequence (P21397 whole entry): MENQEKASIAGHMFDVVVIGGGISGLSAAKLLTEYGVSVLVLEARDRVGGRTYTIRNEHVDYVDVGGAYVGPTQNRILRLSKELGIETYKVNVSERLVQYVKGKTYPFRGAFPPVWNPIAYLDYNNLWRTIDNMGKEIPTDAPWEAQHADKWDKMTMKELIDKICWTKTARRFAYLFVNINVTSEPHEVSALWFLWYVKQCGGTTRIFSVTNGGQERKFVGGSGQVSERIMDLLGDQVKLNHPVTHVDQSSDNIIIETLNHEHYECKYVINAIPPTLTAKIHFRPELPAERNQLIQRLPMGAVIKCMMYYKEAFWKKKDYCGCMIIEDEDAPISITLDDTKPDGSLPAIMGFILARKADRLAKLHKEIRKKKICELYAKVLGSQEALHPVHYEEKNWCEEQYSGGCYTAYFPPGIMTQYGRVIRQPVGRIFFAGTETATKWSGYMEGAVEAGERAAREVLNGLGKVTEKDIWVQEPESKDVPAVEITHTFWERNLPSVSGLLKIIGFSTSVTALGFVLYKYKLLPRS
The experiment in a line: Inhibition of MAO-A (unknown origin) using (4S)-4,5-dihydro-2-(6-hydroxybenzothiazolyl)-4-thiazolecarboxylic acid as substrate by MAO-Glo assay.

For a further experiment, the system named is MOLM-13. The experiment in a line: cells. The settings on record: Homo sapiens, MOLM-13, 192 h.
The target of experiment [2] is T2, Amine oxidase [flavin-containing] B (Homo sapiens, UniProt P27338).
T2 sequence (P27338 whole entry): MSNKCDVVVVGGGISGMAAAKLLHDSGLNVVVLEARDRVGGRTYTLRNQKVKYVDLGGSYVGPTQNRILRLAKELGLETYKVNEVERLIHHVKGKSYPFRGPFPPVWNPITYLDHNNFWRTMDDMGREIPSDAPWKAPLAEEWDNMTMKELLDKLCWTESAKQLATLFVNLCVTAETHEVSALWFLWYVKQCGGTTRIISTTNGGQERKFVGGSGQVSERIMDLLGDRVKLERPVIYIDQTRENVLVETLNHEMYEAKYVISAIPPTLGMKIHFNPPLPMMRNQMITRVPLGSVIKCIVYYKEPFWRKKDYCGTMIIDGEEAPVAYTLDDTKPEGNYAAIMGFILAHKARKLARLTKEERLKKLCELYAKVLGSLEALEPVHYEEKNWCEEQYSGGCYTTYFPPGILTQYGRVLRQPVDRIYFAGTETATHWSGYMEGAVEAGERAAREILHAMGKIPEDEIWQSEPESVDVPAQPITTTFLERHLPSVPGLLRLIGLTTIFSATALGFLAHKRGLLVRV

The test system of the next experiment is MV4-11. The experiment in a line: cells. The settings on record: Homo sapiens, MV4-11, 192 h.
In experiment [3] the test system is THP-1. The experiment in a line: cells. The settings on record: Homo sapiens, THP-1, 192 h.
Experiment [4] addresses Lysine-specific histone demethylase 1A (Homo sapiens, UniProt O60341). Nature of the experiment: Inhibition of full length LSD1 (unknown origin) expressed in Escherichia coli BL21 (DE) using H3K4me2 peptide as substrate after 30 mins by fluorescence assay.
Experiment [5] deals with THP-1. Nature of the experiment: Inhibition of colony formation in human THP1 cells after 14 days by DAPI staining-based microscopic analysis. The experiment is classed as functional, cell-based.
The test system of experiment [6] is THP-1. Nature of the experiment: Induction of morphological changes in human THP1 cells assessed as blurred cell membrane boundaries after 3 days by H and E staining based assay. The experiment is classed as functional.
Experiment [7] relates to THP-1. The experiment in a line: Induction of morphological changes in human THP1 cells assessed as chromatin shrinkage after 3 days by H and E staining based assay. Type of experiment: functional, cell-based.

For 5 molecules, IC50, inhibition and Activity results are on record in ChEMBL document CHEMBL4308871, “Design, synthesis and in vitro evaluation of stilbene derivatives as novel LSD1 inhibitors for AML therapy” (Bioorg Med Chem, 2018).

Where only a bound is given, the exact number is not on record here.

Usually IC50 stands for the concentration that gives 50% inhibition. Low values mean inhibition by little substance, high ones a need for much substance. As to `N/C(=N\O)c1cccc(/C=C/c2ccc(O)c(-c3ccccn3)c2)c1`, the IC50 is more than 50 µM in experiment [1]; 22.6 µM in the experiment with MOLM-13; more than 50 µM in experiment [2]; 4.71 µM in the experiment with MV4-11; 7.89 µM in the experiment with THP-1 [3].
Take `Nc1cccc(/C=C/c2ccc(O)c(-c3ccccn3)c2)c1`: the half-maximal inhibitory concentration (IC50) is 0.301 µM in experiment [4]; more than 50 µM in experiment [1]; 12.5 µM with MOLM-13; more than 50 µM in experiment [2]; 10.9 µM in the experiment with MV4-11; 10.5 µM with THP-1 [3].
Turning to `N[C@H]1CC[C@H](N[C@@H]2C[C@H]2c2ccccc2)CC1`, in the experiment with THP-1 [3], the IC50 is more than 20 µM.
Consider `N/C(=N\O)c1cccc(/C=C/c2ccnc(-c3cc(F)ccc3O)c2)c1`, for which the inhibition result with THP-1 [5] was “Dose-dependent effect”. In addition, the half-maximal inhibitory concentration (IC50) in [1] was more than 50 µM; in the experiment with MOLM-13 it was 8.34 µM; in [2], more than 50 µM; with MV4-11 it was 7.49 µM; in the experiment with THP-1 [3], 5.76 µM. Besides, the Activity entry in the experiment on THP-1 [6] and in the experiment on THP-1 [7] was “Dose-dependent effect” in each case.
With `N/C(=N\O)c1cccc(/C=C/c2ccnc(-c3ccccc3O)c2)c1`, the 50% inhibitory concentration (IC50) in experiment [1] is more than 50 µM; with MOLM-13, 9.05 µM; in experiment [2], more than 50 µM; in the experiment with MV4-11, 15.8 µM; in the experiment with THP-1 [3] it was 13.7 µM.
